Data: patent publication US7109296B2, “Human 5-HT3-C protein” (Ortho-McNeil Pharmaceutical, Inc., priority 1999, dated 2006)

Molecular target: T1, long form of human 5-HT3-A together with 5-HT3-C (Homo sapiens, UniProt P46098+Q8WXA8)
T1 construct: Characterization of the Function of Protein Encoded by p5HT3CR in Xenopus oocvtes; expressed in transfected cells; host or cells: Xenopus laevis oocytes co-injected with cRNAs
T1 sequence (P46098 24-510 isoform P46098-2): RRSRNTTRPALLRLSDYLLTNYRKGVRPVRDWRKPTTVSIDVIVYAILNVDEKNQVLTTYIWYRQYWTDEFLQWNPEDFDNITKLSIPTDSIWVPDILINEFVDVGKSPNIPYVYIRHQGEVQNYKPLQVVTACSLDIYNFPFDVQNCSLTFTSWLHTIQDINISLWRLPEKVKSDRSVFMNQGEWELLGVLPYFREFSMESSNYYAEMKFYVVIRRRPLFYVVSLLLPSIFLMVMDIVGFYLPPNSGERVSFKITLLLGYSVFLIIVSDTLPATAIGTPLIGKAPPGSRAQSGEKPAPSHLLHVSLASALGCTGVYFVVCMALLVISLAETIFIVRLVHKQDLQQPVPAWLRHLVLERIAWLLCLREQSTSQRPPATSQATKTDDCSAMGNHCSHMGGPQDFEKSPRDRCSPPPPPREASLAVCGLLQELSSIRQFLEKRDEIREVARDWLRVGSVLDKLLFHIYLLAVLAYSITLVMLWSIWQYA
T1 sequence (Q8WXA8 28-447): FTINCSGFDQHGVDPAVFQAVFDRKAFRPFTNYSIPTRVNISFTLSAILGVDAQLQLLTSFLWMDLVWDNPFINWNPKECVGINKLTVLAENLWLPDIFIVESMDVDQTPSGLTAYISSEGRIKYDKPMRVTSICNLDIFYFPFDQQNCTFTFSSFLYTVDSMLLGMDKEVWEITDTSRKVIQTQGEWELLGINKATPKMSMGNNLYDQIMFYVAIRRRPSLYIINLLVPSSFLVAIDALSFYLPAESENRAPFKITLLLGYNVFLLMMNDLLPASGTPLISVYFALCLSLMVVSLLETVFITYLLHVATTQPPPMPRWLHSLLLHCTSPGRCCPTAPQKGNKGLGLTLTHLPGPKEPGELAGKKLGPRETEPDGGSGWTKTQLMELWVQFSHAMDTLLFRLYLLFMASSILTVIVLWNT
Test: Two-electrode voltage clamp, oocytes co-injected with long form of human 5-HT3-A and 5-HT3-C
Type: cell-based
Details: 10 μM; n=2
Description: Characterization of the Function of Protein Encoded by p5HT3CR in Xenopus oocvtes Xenopus laevis oocytes were prepared and injected using standard methods previously described and known in the art (Fraser et al., 1993). Ovarian lobes from adult female Xenopus laevis (Nasco, Fort Atkinson, Wis.) were teased apart, rinsed several times in nominally Ca-free saline containing (in mM): NaCl 82.5, KCl 2.5, MgCl2 1, HEPES 5, adjusted to pH 7.0 with NaOH(OR-2), and gently shaken in OR-2 containing 0.2% collagenase Type 1 (ICN Biomedicals, Aurora, Ohio) for 2–5 hours. When approximately 50% of the follicular layers were removed, Stage V and VI oocytes were selected and rinsed in media consisting of 75% OR-2 and 25% ND-96. The ND-96 contained (in mM): NaCl 100, KCl 2, MgCl2 1, CaCl2 1.8, HEPES 5, Na pyruvate 2.5, gentamicin (50 ug/ml), adjusted to pH 7.0 with NaOH. […] Whole cell agonist-induced currents were measured 1–14 days after injection with a conventional two-electrode voltage clamp (GeneClamp500, Axon Instruments, Foster City, Calif.) using standard methods previously described and known in the art (Dascal, 1987). […]

SMILES: NCCc1c[nH]c2ccc(O)cc12 [5-HT, 5-hydroxytryptamine]
- sensitivity of oocytes to agonist: insensitive
